Experimental findings from patent US12123876B2, “Antibody binding to HEG1 and use of the antibody for detection and treatment of mesothelioma” (Kanagawa Prefectural Hospital Organization, priority 2016, dated 2024) are described below.

Entries after “also recorded” stand apart in the source; their conditions may differ.

In data set [1] the target is recombinant human intelectin-1 (Homo sapiens, UniProt Q8WWA0, V109D). In words: Biacore inhibition of intelectin binding to diol structure. To be noted: inhibition of intelectin (0.5 μg/mL) binding. As to the method:
The binding between intelectin and the diol SEPHAROSE® (crosslinked, beaded-form of agarose) beads was inhibited in the presence of another compound with diol structure. An experiment was conducted in which binding of recombinant human intelectin-1 to a sensor chip including 3-Amino-1-propanediol fixed thereto via amino groups was measured by using a Biacore (GE Healthcare Bio-Sciences AB) in the presence of various compounds serially diluted, where intelectin was used with a final concentration of 0.5 μg/mL, and 10 mM HEPES buffer (pH 7.0) containing 1 mM CaCl2), 150 mM NaCl, and 0.03% TWEEN® 20 (polyethylene glycol sorbitan monolaurate, polyoxyethylenesorbitan monolaurate) was used as buffer for measurement, and the binding rate of intelectin was determined for each sample as the degree of binding of intelectin measured for a sample without addition of compound was defined as a binding rate of 100%.
In general terms: In SPR one partner is held on a chip, and binding of the other changes the refractive index at the surface.

In a further data set the test system is HEK-293T cells. In words: Cell proliferation after HEG1 siRNA, HEK-293T. The class given is cell-based. To be noted: which do not express HEG1.
For another data set, the system named is NCI-H2452 cells. In words: Cell proliferation after HEG1 knock-down, NCI-H2452. The class given is cell-based. Conditions: NCI-H2452, another mesothelioma cell line.
The subject of another data set is SKM9-2 antibody. In words: Western blot reactivity of human HEG1 fragments expressed in ACC-MESO-1 with SKM9-2 antibody. In kind it is binding, mouse. Conditions: for Binding to SKM9-2 antibody (positive/negative): Western blot of cell lysate. As to the method: In this Example, the mesothelioma cell line ACC-MESO-1 was allowed to express a human HEG1 fragment with the endogenous HEG1 of ACC-MESO-1 knocked down, and the reactivity with the SKM9-2 antibody was examined. Subsequently, the reactivity with the antibody was tested for the epitope region through alanine scanning, and key amino acids for binding to the antibody were determined.
Gene transfer was performed with HEG1 siRNA (H9106) (SEQ ID NOs: 40, 41) and human HEG1 for the mesothelioma cell line ACC-MESO-1, and the reactivity of the SKM9-2 was examined through Western blot analysis. A full length protein (HEG1 full length) or a fragment (HEG1 3 kb, HEG1 2 kb, or HEG1 1 kb) of the human HEG1 was used. The full length human HEG1 protein, a protein having the amino acid sequence set forth in SEQ ID NO: 35, was obtained through inserting a base sequence set forth in SEQ ID NO: 34 into pFLAG-CMV1 (Sigma-Aldrich Japan K.K.) to obtain a plasmid, transforming the plasmid, and allowing the mesothelioma cell line to express the plasmid. Fragment HEG1 3 kb was obtained through inserting a fragment corresponding to a sequence from position 285, leucine, to position 1387, phenylalanine, of SEQ ID NO: 35 into pFLAG-CMV1 (Sigma-Aldrich Japan K.K.) in an in-frame manner, and allowing the mesothelioma cell line to express the resultant. HEG1 2 kb and HEG1 1 kb were obtained through allowing the mesothelioma cell line to express products similarly obtained from a fragment corresponding to a sequence from position 677, leucine, to position 1387, phenylalanine, of SEQ ID NO: 35 and a fragment corresponding to a sequence from position 992, valine, to position 1387, phenylalanine, of SEQ ID NO: 35, respectively. Each cell lysate was analyzed through Western blot with the SKM9-2 antibody.
Further, the region in exon 7 of HEG1 was analyzed in detail. […]
In general terms: In western blotting, separated proteins are transferred to a membrane and probed.

Chain of recombinant human intelectin-1 (Q8WWA0 19-298 V109D): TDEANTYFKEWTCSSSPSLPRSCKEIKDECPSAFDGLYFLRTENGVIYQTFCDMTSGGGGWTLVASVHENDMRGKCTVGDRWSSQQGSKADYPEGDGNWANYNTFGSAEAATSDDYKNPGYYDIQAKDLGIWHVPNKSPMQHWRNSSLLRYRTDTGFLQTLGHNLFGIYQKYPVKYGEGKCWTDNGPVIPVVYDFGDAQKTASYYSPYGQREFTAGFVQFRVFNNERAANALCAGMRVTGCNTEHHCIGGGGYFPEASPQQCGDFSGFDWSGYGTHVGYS

Turning to `O=C1O[C@H]([C@@H](O)CO)C(O)=C1O` [L-Ascorbic acid], in data set [1], the half-maximal inhibitory concentration (IC50) is at most 1 mM.
Consider “H2674: siRNA for human HEG1; sense SEQ ID NO: 25 CCUAUAGCCGUACAGACUACA, antisense SEQ ID NO: 26; called HEG1 siRNA in b178 (antisense UAGUCUGUACGGCUAUAGGGC; listed as RNA, chemistry not given here)”, for which the Cell proliferation entry was “not affected” in the data set on HEK-293T cells and “suppressed cell proliferation” in the data set on NCI-H2452 cells.
For the molecule “7.6231: SEQ ID NO: 49 (SKSPSLVSLPTE) bonded to SLURPgpi (GGSKSPSLVSLPTEGG; 7.6231 - SLURPgpi (7.6231))”, the “Binding to SKM9-2 antibody (positive/negative)” value with SKM9-2 antibody is “positive”; in the data set on SKM9-2 antibody (listed as fragment 7.6231), “positive signal”. Further, the “Reaction with SKM9-2 antibody after neuraminidase treatment” value with SKM9-2 antibody (lysate treated with neuraminidase, listed as fragment 7.6231) was “disappeared; also recorded: does not react”.
As for `O=C[C@@H](O)[C@@H](O)[C@@H](O)CO` [L-Ribose], in data set [1], the IC50 is at most 1 mM.
`OCC(O)CO` [Glycerol]: the IC50 in data set [1] was at most 1 mM.
The same measure, in the same setting: for `CCCC(=O)OCC(O)CO` (stereo not shown) [Monobutyrin] the value was 0.8 mM; for `C[C@@H](O)CO` [(R)-1,2-Propanediol], 1 mM; for `O=C[C@H](O)[C@H](O)[C@H](O)CO` [D-Ribose], at most 1 mM.
For `CC(O)CO` (stereo not shown) [1,2-Propanediol], in data set [1], the IC50 was found to be 0.9 mM.
In the case of `CCC(O)CO` (stereo not shown) [1,2-Butanediol], in data set [1], the half-inhibitory concentration (IC50) is at most 1 mM.

For orientation: IC50 means the midpoint of a concentration-inhibition curve.
